{
  "source": "patent US20150045312A1",
  "about": "“Use of Compounds Elevating Glutathione Levels for the Treatment of Autism, Autistic Spectrum Disorders and Fragile X Syndrome” (Promentis Pharmaceuticals, Inc., priority 2013, published 2015)",
  "key": {"system xc−": {"target": "T1, system xc− (Homo sapiens, UniProt Q9UPY5)", "T1 construct": "a cell line with high system xc− expression; endogenous in cells; host or cells: 1321N1 human astrocytoma cells", "T1 sequence (Q9UPY5 1-501)": "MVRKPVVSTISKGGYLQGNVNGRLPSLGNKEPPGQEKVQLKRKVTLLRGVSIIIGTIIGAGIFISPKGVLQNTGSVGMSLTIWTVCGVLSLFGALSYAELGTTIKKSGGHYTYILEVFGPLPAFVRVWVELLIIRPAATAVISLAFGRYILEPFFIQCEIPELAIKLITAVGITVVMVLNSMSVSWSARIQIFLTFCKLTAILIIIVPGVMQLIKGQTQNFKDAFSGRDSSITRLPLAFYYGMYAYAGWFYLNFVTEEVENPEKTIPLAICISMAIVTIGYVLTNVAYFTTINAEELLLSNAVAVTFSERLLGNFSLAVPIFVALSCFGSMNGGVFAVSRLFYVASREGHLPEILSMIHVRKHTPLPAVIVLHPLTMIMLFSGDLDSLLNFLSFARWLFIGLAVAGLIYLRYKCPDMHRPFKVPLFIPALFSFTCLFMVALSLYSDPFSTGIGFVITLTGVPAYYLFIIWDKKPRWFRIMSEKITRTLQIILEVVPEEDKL", "T1 sequence (P08195 1-529 partner)": "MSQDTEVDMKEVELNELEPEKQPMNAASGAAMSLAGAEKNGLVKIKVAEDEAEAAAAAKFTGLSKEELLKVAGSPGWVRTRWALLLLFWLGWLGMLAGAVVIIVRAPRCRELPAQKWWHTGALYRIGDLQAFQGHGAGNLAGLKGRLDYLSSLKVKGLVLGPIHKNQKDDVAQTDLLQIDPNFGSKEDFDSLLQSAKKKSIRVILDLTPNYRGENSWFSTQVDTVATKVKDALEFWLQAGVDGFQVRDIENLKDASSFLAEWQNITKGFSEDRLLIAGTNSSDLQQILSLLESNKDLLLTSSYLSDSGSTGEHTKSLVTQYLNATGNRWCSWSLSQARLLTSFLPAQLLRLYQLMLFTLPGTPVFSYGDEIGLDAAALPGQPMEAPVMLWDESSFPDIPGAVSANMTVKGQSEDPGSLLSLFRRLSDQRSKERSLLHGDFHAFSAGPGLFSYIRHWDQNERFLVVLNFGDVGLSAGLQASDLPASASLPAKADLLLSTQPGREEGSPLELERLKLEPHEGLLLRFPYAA", "assay": "in vitro screening assay in human glial cells from brain astrocytoma (1321N1)", "format": "cell-based", "conditions": "1321N1 cells, high system xc− expression", "excerpt": "Using an in vitro screening assay conducted in human glial cells from brain astrocytoma (1321N1), a cell line with high system xc− expression, the compound with the following formula: […]\nUsing an in vitro screening assay conducted in human glial cells from brain astrocytoma (1321N1), a cell line with high System xc− expression, the compound with the following formula: […]"}, "[1]": {"conditions": "cited from earlier work"}, "[2]": {"conditions": "autistic patients, added to risperidone treatment; cited from earlier work"}, "[3]": {"conditions": "in vivo; cited from earlier work"}, "[4]": {"conditions": "schizophrenia, bipolar disorder, obsessive-compulsive disorder, autism; cited from earlier work"}, "[5]": {"assay": "pre-pulse inhibition (PPI) efficacy model of neuropsychiatric disease activity", "format": "in vivo"}, "[6]": {"assay": "elevated plus maze (EPM) efficacy model of neuropsychiatric disease activity", "format": "in vivo", "conditions": "orally-active"}},
  "data": [
    {"smiles": "O=C(Cc1ccccc1)N[C@@H](CSC(c1ccccc1)(c1ccccc1)c1ccccc1)C(=O)O", "note": "[drawing 15]", "values": [
      {"measurement": "3H-glutamate", "setting": "system xc−", "value": "significant elevations"},
      {"measurement": "uptake of 14C-cystine", "setting": "system xc−", "value": "robust and significant decrease"}
    ]},
    {"smiles": "CC(=O)N[C@@H](CS)C(=O)O", "note": "[NAC, N-acetyl cysteine]", "values": [
      {"measurement": "solubility characteristics", "setting": "[1]", "value": "poor solubility characteristics"},
      {"measurement": "irritability versus risperidone+placebo", "setting": "[2]", "value": "significantly decrease irritability"},
      {"measurement": "entry into the CNS", "setting": "[3]", "value": "do not readily enter the CNS"},
      {"measurement": "symptoms of mental disorders", "setting": "[4]", "value": "modestly improve symptoms"}
    ]},
    {"smiles": "N[C@@H](CCC(=O)N[C@@H](CS)C(=O)NCC(=O)O)C(=O)O", "note": "[glutathione]", "values": [
      {"measurement": "solubility characteristics", "setting": "[1]", "value": "poor solubility characteristics"},
      {"measurement": "entry into the CNS", "setting": "[3]", "value": "do not readily enter the CNS"}
    ]},
    {"smiles": "O=C(Cc1ccccc1)N[C@@H](CSC(c1ccccc1)(c1ccccc1)c1ccccc1)C(=O)O", "note": "[drawing 16]", "values": [
      {"measurement": "response in PPI model compared with clozapine", "setting": "[5]; at a comparable dose range, similar to clozapine", "value": "antipsychotic-like response"},
      {"measurement": "behavioral effects in PPI model", "setting": "[5]; orally-active", "value": "significant behavioral effects"},
      {"measurement": "behavioral effects in EPM model", "setting": "[6]", "value": "significant behavioral effects"}
    ]}
  ]
}
